Reference: publication PMC11117691, “Flipping the GPCR Switch: Structure-Based Development of Selective Cannabinoid Receptor 2 Inverse Agonists” (ACS Central Science, 2024)

Key:
hCB2R [1] = target: T1, hCB2R (Homo sapiens, UniProt P34972); assay: TR-FRET saturation binding assay at CB2R; set-up: expressed in transfected cells; host or cells: HEK293-TR cells, tetracycline-induced; membrane preparations; settings: TR-FRET, room temperature, HEK293 membranes of SNAP-Lumi4-Tb labeled hCB2R
hCB2R [2] = target: T1, hCB2R; assay: BRET Gi-CASE G protein recruitment membrane assay; type: biochemical; set-up: expressed in transfected cells; host or cells: HEK293-TR cells, tetracycline-induced; membrane preparations; settings: hCB2R-HEK293 T-REx membranes, mean N = 3–4; read-out: pEC50 (Gi-CASE G protein recruitment) (converted)
hCB2R [3] = target: T1, hCB2R; assay: Radioligand binding assay with [3H]-CP55,940; set-up: expressed in transfected cells; settings: [3H]-CP55,940 competition, CHO-hCB2R membranes, 2 h at 30 °C
Method: For bindings experiments CHO cells stably expressing the human CB2R were used.14 […]
Radioligand binding assays were performed with [3H]-CP55,940 (Perkin Elmer, Austria) .
Membrane preparation was carried out according to previously published protocols.15 Briefly, competition binding experiments were carried out in duplicates at a final volume of 300 µL containing binding buffer (50 mM Tris-HCl, 2.5mM EDTA, 5 mM MgCl2, 0.5 mg/mL fatty acid-free BSA; pH 7.4), [3H]-CP55,940 (0.3 nM final concentration), compounds (semi logarithmically -spaced concentrations ranging from 0.1 nM to 10 µM) and membranes (2 µg/assay) in silanized glass vials. The reaction mixture was incubated for 2 h at 30 °C. Nonspecific binding was determined in the presence of AM630 (10 µM). Bound radioligand was separated from free radioligand by rapid filtration using 0.1% polyethlyenimine -presoaked GF/C glass fiber filter and a Skatron cell harvester. The radioactivity retained on the filters was measured by liquid scintillation. IC 50 and Ki values obtained from radioligand competition binding assays were determined by fitting the data to a three-parameter logistic Hill equation and applying the Cheng and Prusoff approximation. Data were normalized to specific binding of [3H]-CP55,940 in absence of compounds as maximum percentage (100%), which refers to an average of 4500 -5000 fmoles/mg protein for CB2R. […]

hCB2R [4] = target: T1, hCB2R; assay: cAMP HTRF assay in hCB2R-CHO cells; type: cell-based; set-up: expressed in transfected cells
Excerpt: One of the canonical signaling pathways of CB2R involves association with Gαi/o proteins, which elicit reversible inhibition of adenylyl cyclase resulting in a decrease of cellular cAMP levels and suppression of protein kinase A activity.[67] Consequently, we have investigated the change in cAMP levels upon probe addition using homogeneous time-resolved fluorescence (HTRF) cAMP assay (Table 3).
Homogeneous Time-Resolved Fluorescence (HTRF) cAMP assay
The homogeneous time-resolved fluorescence (HTRF) cAMP assay was conducted according to the manufacturer’s protocol for the cAMP-Gs Dynamic kit (Cisbio). Briefly, the CHO cell line stably overexpressing CB2R was maintained in Ham’s F12 supplemented with 10% FBS, penicillin (100 U/mL, Gibco-ThermoFisher), streptomycin (100 μg/mL, Gibco-ThermoFisher) and G418 (400 μg/mL, ThermoFisher). For CB2R compounds test, the cells were harvested with Cell Dissociation Buffer, resuspended in F-12 K at 0.4×10^6 cells/mL, and dispensed into 384-well low volume plates at 2000 cells/5 μL per well. The cells were stimulated with compounds diluted in Stimulation Buffer (2.5 μL/well) for 15 min at room temperature, followed by the addition of forsklin (2.5 μL 25 μM). After 15 mins incubation, reactions were stopped by 5 μL/well cAMP-d2 conjugate working solution followed by 5 μL/well of anti-cAMP cryptate working solution. After incubation for 1 h at room temperature, the plates were read in a PerkinElmer Envision reader for Time-Resolved Förster Resonance Energy Transfer (TR-FRET) at 620 nm and 665 nm.
β–arrestin recruitment assay
SNAP-tagged human CB2R HEK293-TR cells were maintained in a humidified environment at 37 °C and 5% CO2 in Dulbecco’s modified Eagle’s medium (DMEM) with 10% fetal bovine serum (FBS) containing blasticidin (5 µg/mL; Invitrogen) and (Zeocin; 20 µg/mL; Invitrogen). For receptor-inducible expression, cells were seeded into t175 cm2 flasks, grown to 70% confluence and DMEM containing 1 µg/ml tetracycline added.
HEK293TR-CB2R-nLuc cells expressing a fluorescently labelled β-arrestin protein were maintained in a humidified environment at 37 °C and 5% CO2 in Dulbecco’s modified Eagle’s medium (DMEM) with 10% fetal bovine serum (FBS) containing blasticidin (5 µg/mL; Invitrogen), Zeocin (20 µg/mL; Invitrogen) and G418 (0.2 mg/mL; Invitrogen) and used to assess compound stimulated β-arrestin recruitment to the human CB2R. Cultured cells were harvested upon reaching 70% confluency and plated at a seeding density of 50,000 cells per well. The cells were grown for 48 h until they reached confluency and then stimulated with 1 μg/mL tetracycline for a further 48 h to induce CB2R expression. Cell culture media was then aspirated from the wells and the cells were washed with assay buffer, 100 μL/well HBSS containing 0.5% BSA and 5 mM

hCB2R [5] = target: T1, hCB2R; assay: TR-FRET kinetic binding assay at CB2R; set-up: expressed in transfected cells; host or cells: HEK293-TR cells, tetracycline-induced; membrane preparations; settings: for ΔΔG (Experimental): (R)-3 in comparison to (S)-3, from experimental Kd values
hCB2R [6] = target: T1, hCB2R; type: cell-based; set-up: expressed in transfected cells; host or cells: HEK293TR cells, tetracycline-induced, live cells; settings: HEK293TR-CB2R-nLuc cells, representative of N = 3
Method: HEPES. Following the wash, assay buffer containing 10 μM furimazine, 90 μL/well was added
to the wells. The plate was then incubated at 37 °C for 15 minutes to allow the nanoLuc substrate
furimazine to enter the cells. Three BRET cycles of 1-minute intervals were performed to assess
basal BRET levels, following which 10 μL of each compound, diluted in assay buffer was added
to the assay plate, which was read at 1-minute intervals for 30 minutes.
Buffer containing 10% DMSO (1% final) served as the vehicle control and
The assay buffer used to profile compounds in the CB 2R Gi-CASE system consisted of HBSS
containing 0.02% pluronic F127, 0.5% BSA and 5 mM HEPES. The reference compounds HU -
polypropylene plate. 0.5 µL of the reference and test compound serial dilutions was then added to
a white 384 well OptiplateTM (PerkinElmer) containing 39.5 μL of assay buff er. Finally, the CB 2R
membranes containing the G i-CASE biosensor were thawed and added into assay buffer containing
50 µM furimazine. Membranes (10 μL) were added to the assay plate at a final concentration of 5
µg/well. The total assay volume was 50 µL.

[7] = 37 °C, hCB2R-HEK293 membranes, mean N = 3

T1 sequence (P34972 whole entry): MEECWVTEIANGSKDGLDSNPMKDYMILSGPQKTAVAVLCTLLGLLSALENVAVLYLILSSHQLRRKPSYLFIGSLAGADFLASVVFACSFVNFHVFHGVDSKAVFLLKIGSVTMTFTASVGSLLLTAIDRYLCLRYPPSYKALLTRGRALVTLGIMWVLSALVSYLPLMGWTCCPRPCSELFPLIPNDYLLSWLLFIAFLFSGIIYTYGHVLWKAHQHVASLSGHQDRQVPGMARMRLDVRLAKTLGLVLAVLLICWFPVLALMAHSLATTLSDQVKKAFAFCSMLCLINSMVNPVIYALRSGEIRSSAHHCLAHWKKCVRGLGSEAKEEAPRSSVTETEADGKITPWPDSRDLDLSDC

## C#CCCC(=O)NCC1=CC(c2c(OC)cc(C(C)(C)C(CCCCCN=[N+]=[N-])c3ccccc3)cc2OC)C2CC1C2(C)C [(R)-3]
hCB2R [1]
  Kd: 0.42 nM
hCB2R [2]
  EC50: 60.3 nM
hCB2R [3]
  Ki: 0.66 nM
hCB2R [4]; hCB2R-CHO cells, forskolin stimulated, mean N = 3
  EC50: 33.1 nM
hCB2R [4]; normalized to agonist CP-55,940 response (100%) and basal level (0%)
  Emax (cAMP): –55%
hCB2R [5]; [7]
  koff: 2.29 10^–2 min^–1
  kon: 88.7 10^6 M^–1 min^–1
  τ (receptor residence time): 43.7 min
hCB2R [5]
  ΔΔG (Experimental): -0.9 kcal/mol
hCB2R [5]; listed as (R)–3
  ΔΔG (Experimental): –0.90 kcal mol-1
hCB2R [5]; kinetic Kd, 37 °C, hCB2R-HEK293 membranes, mean N = 3
  Kd: 0.26 nM
hCB2R [5]; ΔG exp = RT ln(Kd), T = 310 K, from experimental Kd values
  ΔG (Experimental): –13.6 kcal mol-1
hCB2R [6]
  β-arrestin recruitment (BRET signal): Baseline BRET signal was retained
